Our source for the inhibition values is ChEMBL document CHEMBL3132769, “Fragment growing to retain or alter the selectivity of anchored kinase hinge-binding fragments” (Medchemcomm, 2014).

Assay [1] concerns Tyrosine-protein kinase ABL1 (Homo sapiens), P00519 [Q252H]. As to the kind of experiment: Inhibition of human truncated ABL Q252H mutant expressed in baculovirus assessed as substrate phosphorylation using fluorescence-labelled peptides as substrate at 0.2 uM after 90 mins by microfluidic peptide phosphorylation assay.
Assay [2] concerns the target T1, Calcium/calmodulin-dependent protein kinase type IV (Homo sapiens) (UniProt Q16566).
T1 sequence (whole entry): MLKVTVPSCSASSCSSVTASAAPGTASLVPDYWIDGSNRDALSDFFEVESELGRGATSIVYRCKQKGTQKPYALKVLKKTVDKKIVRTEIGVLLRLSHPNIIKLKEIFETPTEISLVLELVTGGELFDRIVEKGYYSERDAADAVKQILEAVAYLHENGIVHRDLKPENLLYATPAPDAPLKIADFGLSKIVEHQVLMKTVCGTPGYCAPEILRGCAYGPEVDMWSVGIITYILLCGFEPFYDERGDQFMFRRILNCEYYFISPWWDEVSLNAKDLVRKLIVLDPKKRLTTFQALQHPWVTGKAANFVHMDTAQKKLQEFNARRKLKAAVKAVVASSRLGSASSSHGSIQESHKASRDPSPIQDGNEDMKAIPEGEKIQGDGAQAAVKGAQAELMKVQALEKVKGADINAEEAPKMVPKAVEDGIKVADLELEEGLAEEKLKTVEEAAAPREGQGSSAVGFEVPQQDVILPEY
The assay can be described thus: Inhibition of human full length CAMK4 expressed in baculovirus assessed as substrate phosphorylation using fluorescence-labelled peptides as substrate at 0.2 uM after 90 mins by microfluidic peptide phosphorylation assay.

Assay [3] deals with T2, Serine/threonine-protein kinase BRSK2 (Homo sapiens) (UniProt Q8IWQ3).
T2 sequence (whole entry): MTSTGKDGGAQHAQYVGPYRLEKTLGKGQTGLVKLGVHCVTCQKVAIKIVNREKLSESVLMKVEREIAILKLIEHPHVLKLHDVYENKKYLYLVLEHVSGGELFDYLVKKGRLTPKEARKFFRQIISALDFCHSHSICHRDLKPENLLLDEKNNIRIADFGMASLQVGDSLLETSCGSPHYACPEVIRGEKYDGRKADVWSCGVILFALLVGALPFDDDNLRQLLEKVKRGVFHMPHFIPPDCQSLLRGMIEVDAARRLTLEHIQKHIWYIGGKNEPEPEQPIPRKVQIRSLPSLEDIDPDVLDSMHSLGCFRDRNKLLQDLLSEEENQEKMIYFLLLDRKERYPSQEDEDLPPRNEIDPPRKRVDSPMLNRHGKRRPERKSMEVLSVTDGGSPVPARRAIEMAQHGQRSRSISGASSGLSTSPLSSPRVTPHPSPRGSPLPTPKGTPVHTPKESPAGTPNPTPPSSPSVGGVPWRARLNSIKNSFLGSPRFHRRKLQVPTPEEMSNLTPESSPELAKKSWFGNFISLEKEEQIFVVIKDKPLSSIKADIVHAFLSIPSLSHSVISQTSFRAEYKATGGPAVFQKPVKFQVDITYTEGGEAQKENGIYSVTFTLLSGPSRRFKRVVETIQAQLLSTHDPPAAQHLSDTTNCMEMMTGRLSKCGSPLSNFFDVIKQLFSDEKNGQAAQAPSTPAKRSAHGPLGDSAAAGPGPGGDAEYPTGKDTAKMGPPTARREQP
The assay can be described thus: Inhibition of human truncated BRSK2 expressed in baculovirus assessed as substrate phosphorylation using fluorescence-labelled peptides as substrate at 420 uM after 90 mins by microfluidic peptide phosphorylation assay.

The target of assay [4] is T3, Testis-specific serine/threonine-protein kinase 2 (Homo sapiens) (UniProt Q96PF2).
T3 sequence (whole entry): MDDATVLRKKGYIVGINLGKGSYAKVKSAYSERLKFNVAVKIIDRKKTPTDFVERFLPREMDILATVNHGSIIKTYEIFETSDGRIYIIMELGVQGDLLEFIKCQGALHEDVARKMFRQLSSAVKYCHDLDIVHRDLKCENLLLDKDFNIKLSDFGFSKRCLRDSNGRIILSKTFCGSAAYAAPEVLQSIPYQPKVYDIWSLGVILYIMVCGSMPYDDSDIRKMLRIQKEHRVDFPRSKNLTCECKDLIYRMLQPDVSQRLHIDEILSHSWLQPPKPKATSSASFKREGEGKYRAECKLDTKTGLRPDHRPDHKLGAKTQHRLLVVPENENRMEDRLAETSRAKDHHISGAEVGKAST
As to the kind of experiment: Inhibition of human full length TSSK2 expressed in baculovirus assessed as substrate phosphorylation using fluorescence-labelled peptides as substrate at 95 uM after 90 mins by microfluidic peptide phosphorylation assay.

Assay [5] deals with Hepatocyte growth factor receptor (Homo sapiens) (UniProt P08581). As to the kind of experiment: Inhibition of human MET cytoplasmic domain expressed in baculovirus assessed as substrate phosphorylation using fluorescence-labelled peptides as substrate at 1000 uM after 90 mins by microfluidic peptide phosphorylation assay.
Sequence of Hepatocyte growth factor receptor (Homo sapiens) (P08581 whole entry, the tested form may be a part): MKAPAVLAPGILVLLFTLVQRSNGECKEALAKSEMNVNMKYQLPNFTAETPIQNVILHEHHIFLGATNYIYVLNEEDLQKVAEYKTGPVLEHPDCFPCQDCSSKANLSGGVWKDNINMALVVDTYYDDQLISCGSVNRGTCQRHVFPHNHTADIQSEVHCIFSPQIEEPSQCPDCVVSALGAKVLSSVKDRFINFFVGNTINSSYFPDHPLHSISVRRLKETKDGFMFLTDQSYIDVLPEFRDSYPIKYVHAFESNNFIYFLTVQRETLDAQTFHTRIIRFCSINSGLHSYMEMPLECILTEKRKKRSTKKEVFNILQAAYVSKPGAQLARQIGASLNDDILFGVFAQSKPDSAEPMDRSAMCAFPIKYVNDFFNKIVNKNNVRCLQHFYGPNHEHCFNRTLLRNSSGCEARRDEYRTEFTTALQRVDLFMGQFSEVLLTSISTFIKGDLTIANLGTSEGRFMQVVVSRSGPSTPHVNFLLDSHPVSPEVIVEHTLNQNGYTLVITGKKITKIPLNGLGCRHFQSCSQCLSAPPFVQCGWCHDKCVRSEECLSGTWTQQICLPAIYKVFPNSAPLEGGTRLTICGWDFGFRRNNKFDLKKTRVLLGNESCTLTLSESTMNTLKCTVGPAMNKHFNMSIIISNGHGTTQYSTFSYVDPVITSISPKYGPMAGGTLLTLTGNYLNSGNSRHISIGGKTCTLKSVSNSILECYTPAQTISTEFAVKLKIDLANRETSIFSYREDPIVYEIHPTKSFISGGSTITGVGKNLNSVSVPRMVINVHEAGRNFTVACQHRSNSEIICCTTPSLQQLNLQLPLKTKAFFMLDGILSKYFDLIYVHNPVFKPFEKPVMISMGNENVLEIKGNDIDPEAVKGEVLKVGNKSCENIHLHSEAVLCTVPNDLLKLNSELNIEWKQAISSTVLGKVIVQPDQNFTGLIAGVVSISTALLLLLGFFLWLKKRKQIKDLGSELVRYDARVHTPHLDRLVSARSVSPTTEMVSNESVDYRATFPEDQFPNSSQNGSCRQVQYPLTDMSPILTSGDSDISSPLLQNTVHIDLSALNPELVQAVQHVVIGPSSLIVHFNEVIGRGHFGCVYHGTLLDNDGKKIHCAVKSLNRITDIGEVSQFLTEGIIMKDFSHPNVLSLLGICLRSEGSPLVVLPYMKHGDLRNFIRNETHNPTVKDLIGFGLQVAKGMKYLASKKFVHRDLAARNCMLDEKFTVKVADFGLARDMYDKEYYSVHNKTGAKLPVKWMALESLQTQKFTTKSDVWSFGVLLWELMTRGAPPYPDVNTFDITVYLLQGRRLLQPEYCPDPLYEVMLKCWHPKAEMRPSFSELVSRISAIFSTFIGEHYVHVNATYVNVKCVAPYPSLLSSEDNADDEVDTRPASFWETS
For assay [6], the system named is Tyrosine-protein kinase ABL1 (Homo sapiens), P00519 [Q252H]. The assay can be described thus: Inhibition of human truncated ABL Q252H mutant expressed in baculovirus assessed as substrate phosphorylation using fluorescence-labelled peptides as substrate at 2 uM after 90 mins by microfluidic peptide phosphorylation assay.
The target in assay [7] is T4, Aurora kinase C (Homo sapiens) (UniProt Q9UQB9).
T4 sequence (whole entry): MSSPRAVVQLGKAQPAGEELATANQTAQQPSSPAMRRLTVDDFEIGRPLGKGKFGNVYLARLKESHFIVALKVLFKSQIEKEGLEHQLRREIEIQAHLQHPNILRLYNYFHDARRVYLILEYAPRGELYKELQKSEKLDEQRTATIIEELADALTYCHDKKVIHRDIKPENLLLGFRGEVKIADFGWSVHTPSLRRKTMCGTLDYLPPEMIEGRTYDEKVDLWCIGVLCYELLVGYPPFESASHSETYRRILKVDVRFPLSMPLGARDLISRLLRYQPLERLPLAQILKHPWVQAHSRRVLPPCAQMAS
As to the kind of experiment: Inhibition of human full length AurC expressed in baculovirus assessed as substrate phosphorylation using fluorescence-labelled peptides as substrate at 70 uM after 90 mins by microfluidic peptide phosphorylation assay.

Turning to `Clc1ccc(C2(c3ccc(-c4ncnc5[nH]cnc45)cc3)CCNCC2)cc1`, the inhibition (in general, the change of the read-out against control, counted positive when it falls) in assay [1] came out at 0%; in assay [2], 74%.
In the case of `c1nc(N2CCOCC2)c2nc[nH]c2n1`, the inhibition in assay [3] was determined as 60.5%.
`NCCc1ccc(-c2ncnc3[nH]cnc23)cc1`: in assay [4], the inhibition was found to be 23.5%.
On to `c1cnc2[nH]ccc2c1`, for which the inhibition in assay [5] stood at 55%.
`NC1CCN(c2ncnc3[nH]ccc23)CC1`: the inhibition in assay [6] is 17%.
On to `CNCc1ccc(-c2ncnc3[nH]cnc23)cc1`, for which the inhibition in assay [7] worked out at 73%.
